These results are taken from patent US20240253033A1, “MICROFLUIDIC DETECTION SYSTEM WITH ADJUSTABLE FLOW CONTROL” (priority 2022, published 2024).

Read-outs that look alike come from different tables or passages of the source.

The test system of test [1] is E. coli. The test is described as follows: Standard broth microdilution MIC on isolates from patient urine specimens. In kind it is cell-based, Escherichia coli. As to the method: For the standard testing the urine specimens were diluted 1/1000 using CamHB and both the original concentration and a 1/1000 dilution of the specimen were plated on BAP with a 1 μL calibrated loop and incubated for 18-20h at 37 C with 5% CO2. The […] concentration is then calculated for all the isolates coming from each specimen. […] At the end of the process, the inoculum quantification is checked by counted CFU from serial dilutions of the inoculum. A growth positive control (inoculum with no antibiotic), a wild type strain of E. Coli (MG1655) and E. Faecalis are also included and processed in the same way as the isolates for each experiment. Finally, each isolate is plated on BAP to control their monoculture state and to be identified by MALDI.
Samples were tested in parallel using two methods: conventional (Matrix-assisted laser desorption/ionization-time of flight—MALDI/TOF—for bacterial identification and CLSI BMD method for AST) and QolorAST (genotypic for bacterial ID and phenotypic AST). […] Subsequently, we used the images of negative, fastidious, and not fastidious samples to establish a new training for the SVM to classify the specimens into no growth (negative) and growth (positive) classes. We implemented a detection time of 30 mins and a cutoff threshold of 0.6 to differentiate between positive and negative specimens (FIG. 34G).

Test [2] concerns E. coli. As to the method:
To evaluate the QolorAST performance in clinical settings, a double-blinded clinical study at the McGill University Health Center (MUHC) was performed. 47 patients suspected of urinary tract infections, admitted to MUHC emergency clinics between August 2022 to August 2023 were tested. Specimens were consented, collected from the patients and the experiments were done in microbiology labs in MUHC. Each specimen were divided in 3 to be tested in parallel in the central laboratory of the hospital (quantification, identification and MIC), in the research laboratory (quantification, identification and MIC for 2 antibiotics) and with QolorAST genotypic/phenotypic assays in microbiology lab at MUHC. The device has 24 chambers where the media/resazurin/antibiotic mixes as well as the patient samples are injected mixed. […] Therefore, reagent loading port was preloaded with media, specific concentration antibiotic and resazurin at final concentration of 0.25 mg/mL and urine was added to urine loading port. Thereafter, by pressing the pushing button the urine was mixed with the rest of solution at a volumetric ratio of 1:4 which would be the starting point for incubation and imaging of the samples. The samples were incubated at 37° C. at different timepoints starting from 0 to 60 minutes with a time interval of 10 minutes and the imaging was performed as described above.

Another test deals with E coli MG1655. Particulars: E coli MG1655 spiked in urine. Here is the method: To obtain spiked human samples, first human urine was centrifuged at 5000 rcf for 5 minutes to remove large particles. It was subsequently spiked with 5×10^5 CFU ml^−1 and mixed with a solution of Resazurin to a final concentration of 0.02%. No antibiotics were added for the control aliquots, 32 μg/mL Ampicillin was added for resistant aliquots and 16 μg/mL Kanamycin was added for susceptible aliquots. The aliquots were incubated at 37° C. different periods starting from 0 minutes incubation till 60 minutes with a time step of 5 minutes.
According to the Infectious Diseases Society of America (IDSA), 105 CFU ml^−1 and 102 CFU ml^−1 were spiked in-vivo in urine, serum, and nasal swab of donors to simulate urinary tract infection, wound infection, and pneumonia by MRSA, respectively. Human urine was spiked with different concentrations of E. coli (FIG. 32D). As a control the healthy human biofluids were screened as received.

For another test, the system named is Pseudomonas aeruginosa. The test is described as follows: Phenotypic QolorAST rapid AST (resazurin reduction). It counts as cell-based. To be noted: 10^5 cfu/mL PA, antibiotic concentrations, 0-60 min. Here is the method:
(§1) Resistant E. coli, Oxacillin-resistant S. aureus, and Cipro. Resistant PA respectively was used. The aliquots were incubated at 37° C. different periods starting from 0 minutes incubation till 60 minutes with a time step of 5 minutes.
(§2) Resistant PA respectively was used. The aliquots were incubated at 37° C. different periods starting from 0 minutes incubation until 60 minutes with a time step of 5 minutes.
(§3) MRSA and PA respectively.

Test [3] concerns MRSA. The test can be described thus: QolorAST minimum inhibitory concentration (MIC) test. In kind it is cell-based, Staphylococcus aureus. As to the method:
Ampicillin-resistant E. coli strain mm294 was cultured overnight at 37° C. in Luria broth (LB) media supplemented with 100 μg/mL Ampicillin. […] Next, the bacterial concentration was determined by optical density technique using a Spectronic 21D spectrophotometer. Subsequently, aliquots of different concentrations were prepared for the antibiotic susceptibility testing experiments in LB media. Biotyper spectra (MALDI Bruker).
5×10^5 CFU ml^−1 Oxacillin-resistant S. aureus aliquots were prepared using resazurin/oxacillin solution using different concentrations of oxacillin antibiotic (16 μg/mL, 32 μg/mL, and 64 μg/mL). 5×10^5 CFU ml^−1 Cipro.
A minimum inhibitory concentration (MIC) was performed to study the QolorAST broad applicability in detecting bacterial resistance profiles and ensuring timely and efficient antimicrobial theraby. […] The antibiotics cover major bacterial inhibition mechanisms as inhibition of protein synthesis, cell wall synthesis, and/or DNA synthesis.
QolorAST exploited two methodologies: Manual MIC (MA-MIC) and support vector machine MIC (SVM-MIC). […] The SVM-MIC was carried out with a rbf kernel that was optimized and trained to predict the color change of the preclinical images using our library of bacteria images collected under different conditions including images where color is changed, color transitioning, and no color change. The SVM successfully classified the condition's bacteria-antibiotic in the concentration range studied.

Test [4] relates to MRSA. The test can be described thus: Phenotypic QolorAST rapid AST (resazurin reduction). It counts as cell-based, Staphylococcus aureus. To be noted: 10^5 cfu/mL MRSA, antibiotic concentrations, 0-60 min. As to the method:
as §1, §2, §3
On the technique in general: Resazurin is reduced to fluorescent resorufin, in cell work by metabolically active cells.

On to `O=C1CN(/N=C/c2ccc([N+](=O)[O-])o2)C(=O)N1` [Nitrofurantoin], for which the “Broth Microdilution MIC (MIC)” value in the test with E. coli [1] (Patient # 49, E. coli) is 8; in the test on E. coli [1] (Patient # 50, E. coli), 8; in the test with E. coli [1] (Patient # 51*, E. coli), 16; in the test on E. coli [1] (Patient # 52, E. coli), 16; with E. coli [1] (Patient # 53, E. coli), 6; in the test on E. coli [1] (Patient # 54, E. coli), 4. Moreover, the “Broth Microdilution MIC (MIC)” value in the test with E. coli [1] (Patient # 55, E. coli) is 8; with E. coli [1] (Patient # 56, E. coli), 8; in the test on E. coli [1] (Patient # 57, E. coli), 8; in the test with E. coli [1] (Patient # 58, E. coli), 8; in the test on E. coli [1] (Patient # 59, E. coli), 16; in the test on E. coli [1] (Patient # 60, E. coli), 16. For the same compound, the “Broth Microdilution MIC (MIC)” value with E. coli [1] (Patient # 61, E. coli) was determined as 4; in the test on E. coli [1] (Patient # 62, E. coli), 6; in the test with E. coli [1] (Patient # 63, E. coli), 4; in the test on E. coli [1] (Patient # 64, E. coli), 8; in the test with E. coli [1] (Patient # 65, E. coli) it was 8; in the test on E. coli [1] (Patient # 66, E. coli) it was 8. In addition, the “Broth Microdilution MIC (MIC)” value is reported as 2 in the test on E. coli [1] (Patient # 67*, E. coli) and 8 in the test with E. coli [1] (Patient # 68, E. coli). In addition, the “QolorAST MIC Manual (MA-MIC)” value is given as 8 in the test on E. coli [2] (Patient # 49, urine specimen); 8 in the test on E. coli [2] (Patient # 50, urine specimen); under 0.25 in the test with E. coli [2] (Patient # 51*, urine specimen); 16 in the test with E. coli [2] (Patient # 52, urine specimen); 4 in the test on E. coli [2] (Patient # 53, urine specimen); 4 with E. coli [2] (Patient # 54, urine specimen). Besides, the “QolorAST MIC Manual (MA-MIC)” value amounted to 8 with E. coli [2] (Patient # 55, urine specimen); 8 with E. coli [2] (Patient # 56, urine specimen); 8 in the test with E. coli [2] (Patient # 57, urine specimen); 8 in the test with E. coli [2] (Patient # 58, urine specimen); 16 with E. coli [2] (Patient # 59, urine specimen); 4 with E. coli [2] (Patient # 60, urine specimen). Besides, the “QolorAST MIC Manual (MA-MIC)” value in the test on E. coli [2] (Patient # 61, urine specimen) worked out at 4; with E. coli [2] (Patient # 62, urine specimen), 6; in the test on E. coli [2] (Patient # 63, urine specimen) it was 4; in the test on E. coli [2] (Patient # 64, urine specimen) it was 8; with E. coli [2] (Patient # 65, urine specimen), 8; with E. coli [2] (Patient # 66, urine specimen) it was 8. For the same compound, the “QolorAST MIC Manual (MA-MIC)” value in the test with E. coli [2] (Patient # 67*, urine specimen) is given as under 0.25; in the test on E. coli [2] (Patient # 68, urine specimen), 8. Also, the “QolorAST MIC SVM (SVM-MIC)” value in the test on E. coli [2] (Patient # 49, urine specimen) was 8; with E. coli [2] (Patient # 50, urine specimen) it was 8; in the test with E. coli [2] (Patient # 51*, urine specimen), under 0.25; in the test on E. coli [2] (Patient # 52, urine specimen), 16; in the test with E. coli [2] (Patient # 53, urine specimen) it was 4; with E. coli [2] (Patient # 54, urine specimen) it was 4. Moreover, the “QolorAST MIC SVM (SVM-MIC)” value with E. coli [2] (Patient # 55, urine specimen) was found to be 8; in the test on E. coli [2] (Patient # 56, urine specimen), 8; with E. coli [2] (Patient # 57, urine specimen) it was 8; in the test on E. coli [2] (Patient # 58, urine specimen) it was 8; in the test on E. coli [2] (Patient # 59, urine specimen), 16; in the test with E. coli [2] (Patient # 60, urine specimen), 4. In addition, the “QolorAST MIC SVM (SVM-MIC)” value in the test with E. coli [2] (Patient # 61, urine specimen) amounted to 4; in the test with E. coli [2] (Patient # 62, urine specimen) it was 6; with E. coli [2] (Patient # 63, urine specimen), 4; in the test with E. coli [2] (Patient # 64, urine specimen), 8; in the test on E. coli [2] (Patient # 65, urine specimen), 8; with E. coli [2] (Patient # 66, urine specimen) it was 8. Also, the “QolorAST MIC SVM (SVM-MIC)” value was under 0.25 in the test on E. coli [2] (Patient # 67*, urine specimen) and 8 in the test with E. coli [2] (Patient # 68, urine specimen).

Regarding `COc1cc(Cc2cnc(N)nc2N)cc(OC)c1OC` [Trimethoprim], in the test on E coli MG1655, the MIC was found to be 0.312 mL⁻¹ and the “resistance profile based on the CLSI MIC cut off values” is on record as “susceptible”.

On to `O=C(O)c1cn(C2CC2)c2cc(N3CCNCC3)c(F)cc2c1=O` [Ciprofloxacin], for which the “QolorAST colour readout over incubation” value in the test on Pseudomonas aeruginosa is “consistent color change from blue to green”. In the test on MRSA [3], the QolorAST MIC Manual (MA-MIC) was determined as 1 µg/mL, the QolorAST MIC SVM (SVM-MIC) stood at 1 µg/mL and the resistance or susceptibility entry was “susceptibility”. The “QolorAST colour readout over incubation” value in the test with MRSA [4] is given as “consistent blue color”.
